Some test systems named below: XF 498 CNS; DMS 114 small cell lung; DMS 273 small cell lung; LXFL 529 NSCLC; DLD-1 colon; M19-MEL melanoma; RXF-631 renal; HOP-18 NSCLC; MDA-N.
Common to all, as to assay: inhibition of tumour cell growth, NCI panel, 48 h

“And” between values parts separate entries of the source, which are not always exact repeats. Equal values may be shown once.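 Growth conditions: 96-well plates. Treatment: test compound, 48 hours, 5 concentrations. Analysis: linear interpolation between bracketing concentrations; unreached endpoints set to highest concentration. GI50: concentration for 50% inhibition of growth. Definition used: TGI = concentration required for complete inhibition of growth.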

Turning to `CCCN(CCCCC(NC(C)=O)C(=O)NCc1ccccc1)C(=O)N(C)N=O` (stereo not drawn), the TGI in the experiment with XF 498 CNS, in the experiment on DMS 114 small cell lung, in the experiment with DMS 273 small cell lung, in the experiment with LXFL 529 NSCLC, in the experiment with DLD-1 colon and in the experiment with M19-MEL melanoma was more than 100 µM each time.
With `COc1ccc(C(=O)C(c2ccc(OC)cc2)C2(O)C(=O)Nc3ccccc32)cc1` (stereo not drawn), the TGI in the experiment on XF 498 CNS, in the experiment with DMS 273 small cell lung, with RXF-631 renal, in the experiment on LXFL 529 NSCLC, with DLD-1 colon and in the experiment on M19-MEL melanoma was more than 100 µM throughout.
For the compound `O=C(O)C(CP(=O)(O)O)=C(Cl)Cl`, the TGI with XF 498 CNS, in the experiment with DMS 273 small cell lung, in the experiment with HOP-18 NSCLC, in the experiment with LXFL 529 NSCLC and in the experiment with M19-MEL melanoma was more than 100 µM in each case.
Turning to `C=C1C(=O)O[C@@H]2C[C@@]3(C)CCC[C@H](C)C3=C[C@H]12`, in the experiment with MDA-N, the TGI amounted to 16.6 µM.
As for `COC(=O)C1=C(O)c2cc(OC)c(OC)c(OC)c2[C@H](c2cc(OC)c(OC)c(OC)c2)C1C(=O)OC` (stereo partly drawn), the TGI with XF 498 CNS is more than 100 µM; in the experiment on DMS 114 small cell lung, 87.7 µM; with DMS 273 small cell lung, 51.4 µM; in the experiment with RXF-631 renal, 97.2 µM; in the experiment on LXFL 529 NSCLC it was more than 100 µM; with DLD-1 colon, more than 100 µM.
In the case of `COc1ccc(CCN2C(=O)C=CC2=O)cc1OC`, in the experiment on MDA-N, the TGI amounted to 33.5 µM.
As to `CN(C)CCNC(=O)c1cc2ccccc2c2nc3ccccc3nc12`, the TGI in the experiment with DMS 114 small cell lung is 2.43 µM; in the experiment with DMS 273 small cell lung, more than 100 µM; with HOP-18 NSCLC, more than 22.9 µM; with LXFL 529 NSCLC, more than 22.3 µM; with DLD-1 colon, 3.59 µM; in the experiment with M19-MEL melanoma, 2.67 µM.
For `CCCCCCCCCCCCCC(=O)O[C@H]1CC[C@H](NC(=O)[C@H](OC)[C@H](O)[C@@H](O)[C@H](O)/C=C/C(C)C)C(=O)NC1`, the TGI with XF 498 CNS was 0.305 µM; in the experiment with DMS 273 small cell lung, 0.0303 µM; in the experiment on HOP-18 NSCLC, more than 51.2 µM; in the experiment on LXFL 529 NSCLC, 7.26 µM; in the experiment with MDA-N, 44.7 µM and 12.1 µM; with M19-MEL melanoma, 8.23 µM. Moreover, the GI50 with DMS 114 small cell lung was less than 0.001 µM; in the experiment with DMS 273 small cell lung it was less than 0.001 µM; with HOP-18 NSCLC, more than 51.2 µM; in the experiment on LXFL 529 NSCLC, 0.00512 µM; in the experiment on MDA-N, 0.0165 µM; with M19-MEL melanoma it was 0.0245 µM.
Turning to `COc1cc(/C=C2\[C@H]3c4c(c(OC)c(C)c(OC)c4OC)C[C@@H](C(=O)N2Cc2ccccc2)N3C(=O)OCC(C)C)c(OC)c(C)c1OC`, the TGI in the experiment on XF 498 CNS, in the experiment with DMS 273 small cell lung, with HOP-18 NSCLC, with LXFL 529 NSCLC, in the experiment on DLD-1 colon and in the experiment on M19-MEL melanoma was more than 100 µM throughout.
As to `CCOC(C)C(/C=N/NC(N)=S)=NNC(N)=S` (stereo not drawn), the TGI in the experiment on LXFL 529 NSCLC, in the experiment on DLD-1 colon and with M19-MEL melanoma was more than 100 µM each time.
In the case of `COc1cc(/C=C2/C(=O)N(C(=O)OC(C)C)C(Cc3cc(OC)c(OC)c(C)c3OC)C(=O)N2Cc2ccccc2)c(OC)c(C)c1OC` (stereo not drawn), the TGI in the experiment with DMS 114 small cell lung, with DMS 273 small cell lung, in the experiment on HOP-18 NSCLC, with LXFL 529 NSCLC, in the experiment with DLD-1 colon and with M19-MEL melanoma was more than 100 µM throughout.
For the compound `CC(=O)OC(/C=C1/C=CC(=O)O1)COC(=O)c1ccccc1` (stereo not drawn), the TGI in the experiment on XF 498 CNS, with DMS 114 small cell lung, in the experiment on DMS 273 small cell lung, in the experiment with HOP-18 NSCLC, with LXFL 529 NSCLC and in the experiment with DLD-1 colon was more than 31.2 µM in each case. The TGI with M19-MEL melanoma was more than 31.2 µM.
Consider `CCOC(=O)/C(O)=C(/c1n[nH]c(=O)c2ccccc12)[N+](=O)[O-]`, for which the TGI in the experiment on DMS 114 small cell lung, with DMS 273 small cell lung, in the experiment with HOP-18 NSCLC, with LXFL 529 NSCLC, in the experiment on DLD-1 colon and in the experiment on M19-MEL melanoma was more than 100 µM each time.
As to `Cc1ccc(NC(=O)CCC(CC(=O)C(C)(C)C)=NNC(=O)C(=O)NN)cc1C`, the TGI in the experiment on XF 498 CNS, in the experiment with DMS 273 small cell lung, with HOP-18 NSCLC, in the experiment with LXFL 529 NSCLC, in the experiment on DLD-1 colon and in the experiment on M19-MEL melanoma was more than 100 µM throughout.
Regarding `O=S(=O)(O)O.[NH-]C1CCCCC1[NH-].[Pt+2]` (stereo not drawn), the GI50 in the experiment with LXFL 529 NSCLC was more than 100 µM; in the experiment on DLD-1 colon, 27.8 µM; in the experiment with M19-MEL melanoma it was more than 100 µM. The TGI in the experiment on LXFL 529 NSCLC, in the experiment on DLD-1 colon and with M19-MEL melanoma was more than 100 µM in each case.
For `O=c1/c(=C/c2cccc([N+](=O)[O-])c2)sc2nc3ccccc3n12`, the TGI in the experiment with XF 498 CNS, in the experiment with DMS 114 small cell lung, in the experiment on DMS 273 small cell lung, in the experiment with LXFL 529 NSCLC, with DLD-1 colon and in the experiment on M19-MEL melanoma was more than 100 µM in each case.
For `CCOC(=O)C12CCCC1(O)N(NC(=O)c1ccccc1)C(C)=C2C(=O)OC` (stereo not drawn), the TGI in the experiment on DMS 273 small cell lung, in the experiment with HOP-18 NSCLC, in the experiment with LXFL 529 NSCLC and with M19-MEL melanoma was more than 100 µM in each case.
Regarding `COC(=O)C1=C2CCC(=O)[C@@]2(C)C(OC(C)=O)C=CC1` (stereo partly drawn), the TGI with XF 498 CNS was 92.9 µM; in the experiment on DMS 114 small cell lung, more than 100 µM; in the experiment on DMS 273 small cell lung, more than 100 µM; with RXF-631 renal, 54 µM; in the experiment on LXFL 529 NSCLC, more than 100 µM; with DLD-1 colon, more than 100 µM. The TGI in the experiment with M19-MEL melanoma was more than 100 µM.
With `Cc1[nH]c2ccccc2c1C1Cc2ccccc2N1C(=O)/C=C/C=C/c1ccccc1` (stereo not drawn), the TGI in the experiment on DMS 114 small cell lung, in the experiment with DMS 273 small cell lung, in the experiment with LXFL 529 NSCLC, with DLD-1 colon and in the experiment with M19-MEL melanoma was more than 100 µM each time.
With `COc1cccc(C2c3cc4c(cc3OC(C)(O)C2C)OCO4)c1O` (stereo not drawn), in the experiment with MDA-N, the TGI is 4.69 µM.
Regarding `CCOC12OC3=C(CC1CC1=C(CCC1=O)O2)C(=O)CC3` (stereo not drawn), the TGI in the experiment on DMS 114 small cell lung, with DMS 273 small cell lung, with HOP-18 NSCLC, with RXF-631 renal, in the experiment with LXFL 529 NSCLC and in the experiment with DLD-1 colon was more than 100 µM in each case. This compound registered a TGI in the experiment on M19-MEL melanoma of more than 100 µM.
Consider `Cc1cc(NS(=O)(=O)c2ccc(N=Nc3cc(N=Nc4ccc(S(=O)(=O)Nc5cc(C)nc(C)n5)cc4)c4c(NC(=O)C(Cl)Cl)cccc4c3OC(=O)C(Cl)Cl)cc2)nc(C)n1` (tested in a mixture with another compound), for which the TGI in the experiment with DMS 114 small cell lung was more than 100 µM; in the experiment on DMS 273 small cell lung, 83.9 µM; in the experiment with HOP-18 NSCLC, 34.1 µM; with DLD-1 colon, 33.4 µM; in the experiment on M19-MEL melanoma it was more than 100 µM.
With `COc1cc(O)c2c(O)c3c(c4c2c1[C@]1(C4)C(C)=CCCC1(C)C)[C@H](O)[C@@]1(O)CC(=O)C(C(N)=O)=C(O)[C@@]1(O)C3=O`, in the experiment with MDA-N, the TGI was 1.72 µM.
In the case of `O=c1cccccc1NCCOCCNc1cccccc1=O`, the TGI in the experiment on DMS 114 small cell lung, with DMS 273 small cell lung, in the experiment with HOP-18 NSCLC, in the experiment with LXFL 529 NSCLC, in the experiment on DLD-1 colon and with M19-MEL melanoma was more than 100 µM in each case.
Regarding `C=CCCC(OCOCCOC)c1cc(C)c(O[Si](C)(C)C(C)(C)C)c(C)c1` (stereo not drawn), the TGI in the experiment with DMS 114 small cell lung was 28 µM; with HOP-18 NSCLC it was 96.4 µM; with RXF-631 renal, 30.4 µM; in the experiment with LXFL 529 NSCLC, more than 100 µM; with M19-MEL melanoma, 55.3 µM.
With `CC1(C)COC(C23C4C5C2C2C3C4C52I)=N1` (stereo not drawn), the TGI with XF 498 CNS, in the experiment with DMS 114 small cell lung, with HOP-18 NSCLC, with LXFL 529 NSCLC, with DLD-1 colon and in the experiment with M19-MEL melanoma was more than 100 µM throughout.
`Nc1nc(N)c(N=O)c(Nc2ccc(O)cc2)n1` yielded a TGI with MDA-N of more than 100 µM.
Take `C/C(=C\C(C)COCc1ccccc1)[C@H](COCc1ccccc1)OCc1ccccc1` (stereo partly drawn): the TGI in the experiment with XF 498 CNS, in the experiment on DMS 114 small cell lung, with DMS 273 small cell lung, in the experiment on RXF-631 renal, in the experiment on LXFL 529 NSCLC and in the experiment on M19-MEL melanoma was more than 100 µM throughout.
Regarding `CC1CC2(C)ON=C(c3ccccc3)N2c2ccccc2S1` (stereo not drawn), in the experiment on MDA-N, the GI50 was 34.2 µM.
For `CC(=O)[CH-]C(=O)c1ccccc1.CC(=O)[CH-]C(=O)c1ccccc1.CC[O-].CC[O-].[Zr+4]`, the GI50 in the experiment with HOP-18 NSCLC, in the experiment on LXFL 529 NSCLC and with DLD-1 colon was more than 100 µM each time. In addition, the TGI in the experiment on HOP-18 NSCLC, in the experiment on LXFL 529 NSCLC and in the experiment with DLD-1 colon was more than 100 µM each time.
Turning to `COc1ccc2c(=O)c(C)c(-c3ccccc3)oc2c1CN(C)C`, the TGI in the experiment with XF 498 CNS, with DMS 114 small cell lung, in the experiment on DMS 273 small cell lung, in the experiment with HOP-18 NSCLC, in the experiment on LXFL 529 NSCLC and in the experiment on DLD-1 colon was more than 100 µM throughout. The compound also gave a TGI with M19-MEL melanoma of more than 100 µM. In addition, the GI50 in the experiment on M19-MEL melanoma was > 100 µM and 42.4 µM.
Regarding `COc1ccc(C(=O)OCC2OC(n3cnc4c(=S)nc[nH]c43)C(OC(=O)c3ccc(OC)cc3)C2OC(=O)c2ccc(OC)cc2)cc1` (stereo not drawn), the TGI in the experiment on DMS 114 small cell lung, in the experiment with DMS 273 small cell lung, in the experiment on LXFL 529 NSCLC, in the experiment with DLD-1 colon and in the experiment with M19-MEL melanoma was more than 100 µM throughout.
